One may read the EC50 as the midpoint of the concentration-response curve. Read a high EC50 as weaker potency. For orientation: IC50 means the point on the concentration scale where inhibition reaches its midpoint. Lower therefore signals greater potency.

This is an account of results in paper PMC12169847, “Targeted protein degradation by KLHDC2 ligands identified by high-throughput screening” (eLife, 2025).

Test [1] addresses T1, KLHDC2 (Homo sapiens, UniProt Q9Y2U9).
T1 sequence (Q9Y2U9 1-362): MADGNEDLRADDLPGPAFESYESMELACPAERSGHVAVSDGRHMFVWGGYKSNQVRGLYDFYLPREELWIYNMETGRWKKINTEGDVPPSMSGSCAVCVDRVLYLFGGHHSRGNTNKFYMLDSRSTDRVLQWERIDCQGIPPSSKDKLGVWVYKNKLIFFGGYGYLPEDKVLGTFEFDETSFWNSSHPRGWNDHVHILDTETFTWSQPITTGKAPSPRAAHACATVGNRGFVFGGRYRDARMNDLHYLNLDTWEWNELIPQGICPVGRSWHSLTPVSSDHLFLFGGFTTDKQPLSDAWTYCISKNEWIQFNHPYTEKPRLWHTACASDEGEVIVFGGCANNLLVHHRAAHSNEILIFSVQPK
The test can be described thus: Surface plasmon resonance direct binding to immobilized KLHDC2. Conditions: read-out: KLHDC2 Kd (SPR). (In SPR one partner is held on a chip, and binding of the other changes the refractive index at the surface.)

For test [2], the target named is T2, GST-tagged KLHDC2 (Homo sapiens, UniProt Q9Y2U9).
T2 sequence (Q9Y2U9 1-362): T1 sequence (Q9Y2U9 1-362)
The experiment in a line: Fluorescence polarization competition assay, KLHDC2 with TAMRA-SelK peptide (384-well). Conditions: for Fluorescence polarization signal: KLHDC2, replicate wells.

Test [3] addresses T3, KEAP1 Kelch domain (Homo sapiens, UniProt Q14145).
T3 construct: HIS6 (N); made in house; host or cells: Escherichia coli BL21(DE3)
The test can be described thus: Fluorescence polarization counter-screen, KEAP1 with TAMRA-NRF2 peptide. The format is binding. Conditions: for Fluorescence polarization signal: KEAP1, replicate wells.

Test [4] deals with SelK (Homo sapiens) (UniProt Q9Y6D0). Conditions: cited from earlier work.
SelK (Homo sapiens), sequence (Q9Y6D0 2-94): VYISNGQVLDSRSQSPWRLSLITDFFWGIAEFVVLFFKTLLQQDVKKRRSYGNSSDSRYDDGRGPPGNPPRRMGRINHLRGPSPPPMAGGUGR
The target of test [5] is KLHDC2. On the set-up: method as in Rusnac et al., 2018. Conditions: ref Rusnac et al., 2018; read-out: dissociation constant, reported literature value; cited from earlier work.

Where “and” joins values, the source holds several entries; their conditions need not be identical. Equal entries are not always repeated.

T3 sequence (Q14145 321-609 limits assumed): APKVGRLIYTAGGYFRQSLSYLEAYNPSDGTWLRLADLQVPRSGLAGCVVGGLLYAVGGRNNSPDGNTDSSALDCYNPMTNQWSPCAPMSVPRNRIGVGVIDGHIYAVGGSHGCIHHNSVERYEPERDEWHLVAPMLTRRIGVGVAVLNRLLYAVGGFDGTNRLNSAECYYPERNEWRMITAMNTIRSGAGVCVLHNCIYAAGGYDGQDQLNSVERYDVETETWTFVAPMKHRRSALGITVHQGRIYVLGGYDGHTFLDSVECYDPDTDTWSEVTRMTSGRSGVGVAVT
KLHDC2 (from UniProt Q9Y2U9), sequence (Q9Y2U9 whole entry): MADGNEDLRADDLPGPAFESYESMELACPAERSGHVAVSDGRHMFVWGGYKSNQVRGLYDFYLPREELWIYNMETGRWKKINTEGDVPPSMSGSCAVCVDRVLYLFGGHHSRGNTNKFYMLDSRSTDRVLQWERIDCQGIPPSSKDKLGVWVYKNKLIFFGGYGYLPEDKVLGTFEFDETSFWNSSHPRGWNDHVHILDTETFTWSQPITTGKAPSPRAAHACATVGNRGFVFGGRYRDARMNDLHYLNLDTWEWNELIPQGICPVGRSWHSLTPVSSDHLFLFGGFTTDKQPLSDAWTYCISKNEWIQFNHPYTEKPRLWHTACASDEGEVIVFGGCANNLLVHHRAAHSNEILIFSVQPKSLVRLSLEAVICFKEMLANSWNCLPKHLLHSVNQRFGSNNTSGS

Turning to `O=C(O)c1cc(Cl)cc2c1NC(c1cccc(C(F)(F)F)c1)C1C3CCC(C3)C21` (centres unmarked) [compound 5], in test [1], the Kd was 380 nM and 379 nM. Also, the values for the EC50 in test [2] and in test [3] (in figure) were 760 nM and > 20000 nM, respectively. In test [2], this compound yielded an IC50 of 760 nM. Moreover, the Fluorescence polarization signal was -4 and 1 and 6 in test [2] (0.169351 nM); -11.1 and -2.3 and 1 in test [2] (0.508053 nM); -1.4 and 2 and 0 in test [2] (1.52416 nM); 1 (2×) and -8.1 in test [2] (4.57247 nM); 1 and -4 and 0 in test [2] (13.7174 nM); 1 and -1.4 and -5.1 in test [2] (41.1523 nM). The Fluorescence polarization signal in test [2] (123.457 nM) was 0 and -2.6 and -8.8; in test [2] (370.37 nM) it was -30.6 and -31 and -24.7; in test [2] (1111.11 nM), -67.8 and -66.2 and -52.8; in test [2] (3333.33 nM), -93.4 and -88.4 and -82.2; in test [2] (10000 nM), -84.4 and -101.233 and -107.845; in test [3] (0.169351 nM), 20 and 24 and 25. Also, the Fluorescence polarization signal in test [3] (0.508053 nM) is 22 and 20 and 32; in test [3] (1.52416 nM) it was 29 and 21 and 41; in test [3] (4.57247 nM), 16 and 24 and 43; in test [3] (13.7174 nM) it was 24 (2×) and 27; in test [3] (41.1523 nM), 20 and 18 and 26; in test [3] (123.457 nM) it was 20 and 35 and 31. For the same compound, the Fluorescence polarization signal in test [3] (370.37 nM) is 31 and 22 and 25; in test [3] (1111.11 nM) it was 25 and 23 and 18; in test [3] (3333.33 nM), 15 and 26 and 34; in test [3] (10000 nM), 31 and 14 and 27. The “inhibitory effect in the KEAP1 counter-screening assay” value in test [3] (concentrations less than 20 µM) is given as “no inhibitory effect”.

For the compound KLHDC2 (from UniProt Q9Y2U9), in test [4], the Kd was 3.4 nM.

With “SelK: client protein of KLHDC2 with C-terminal diglycine degron”, in test [5], the Kd is < 10 nM.
